From US10793564B2, “Amino acid compounds and methods of use” (Pliant Therapeutics, Inc., priority 2018, dated 2020) come the findings set out here.

Where only a bound is given, the exact number is not on record here.

recombinant human integrin αVβ6, sequence (P06756 31-992): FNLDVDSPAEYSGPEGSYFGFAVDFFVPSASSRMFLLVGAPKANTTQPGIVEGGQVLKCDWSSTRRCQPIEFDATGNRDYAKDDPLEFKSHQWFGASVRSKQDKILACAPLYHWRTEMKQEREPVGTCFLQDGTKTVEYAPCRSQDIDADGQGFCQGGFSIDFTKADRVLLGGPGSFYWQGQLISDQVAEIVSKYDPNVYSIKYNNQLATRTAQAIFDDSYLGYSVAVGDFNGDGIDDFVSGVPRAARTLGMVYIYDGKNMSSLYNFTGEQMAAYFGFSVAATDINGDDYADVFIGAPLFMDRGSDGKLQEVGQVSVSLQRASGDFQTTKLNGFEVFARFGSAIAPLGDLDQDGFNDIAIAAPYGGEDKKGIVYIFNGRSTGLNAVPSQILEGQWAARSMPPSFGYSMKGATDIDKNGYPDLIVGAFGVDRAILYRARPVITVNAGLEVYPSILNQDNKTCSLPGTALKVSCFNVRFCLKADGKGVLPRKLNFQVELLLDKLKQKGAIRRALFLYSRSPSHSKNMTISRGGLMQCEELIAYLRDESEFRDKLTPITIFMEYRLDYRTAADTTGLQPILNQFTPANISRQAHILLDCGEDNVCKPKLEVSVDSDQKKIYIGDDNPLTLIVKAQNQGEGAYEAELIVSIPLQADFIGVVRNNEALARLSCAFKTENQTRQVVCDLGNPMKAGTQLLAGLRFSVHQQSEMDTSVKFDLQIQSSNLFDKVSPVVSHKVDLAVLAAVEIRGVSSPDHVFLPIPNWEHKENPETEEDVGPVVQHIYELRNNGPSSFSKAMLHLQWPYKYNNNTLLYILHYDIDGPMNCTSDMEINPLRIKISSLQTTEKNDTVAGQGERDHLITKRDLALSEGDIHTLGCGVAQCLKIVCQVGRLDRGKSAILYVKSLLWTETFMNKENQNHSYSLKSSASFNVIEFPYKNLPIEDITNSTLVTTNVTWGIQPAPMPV
recombinant human integrin αVβ6, sequence (P18564 22-707): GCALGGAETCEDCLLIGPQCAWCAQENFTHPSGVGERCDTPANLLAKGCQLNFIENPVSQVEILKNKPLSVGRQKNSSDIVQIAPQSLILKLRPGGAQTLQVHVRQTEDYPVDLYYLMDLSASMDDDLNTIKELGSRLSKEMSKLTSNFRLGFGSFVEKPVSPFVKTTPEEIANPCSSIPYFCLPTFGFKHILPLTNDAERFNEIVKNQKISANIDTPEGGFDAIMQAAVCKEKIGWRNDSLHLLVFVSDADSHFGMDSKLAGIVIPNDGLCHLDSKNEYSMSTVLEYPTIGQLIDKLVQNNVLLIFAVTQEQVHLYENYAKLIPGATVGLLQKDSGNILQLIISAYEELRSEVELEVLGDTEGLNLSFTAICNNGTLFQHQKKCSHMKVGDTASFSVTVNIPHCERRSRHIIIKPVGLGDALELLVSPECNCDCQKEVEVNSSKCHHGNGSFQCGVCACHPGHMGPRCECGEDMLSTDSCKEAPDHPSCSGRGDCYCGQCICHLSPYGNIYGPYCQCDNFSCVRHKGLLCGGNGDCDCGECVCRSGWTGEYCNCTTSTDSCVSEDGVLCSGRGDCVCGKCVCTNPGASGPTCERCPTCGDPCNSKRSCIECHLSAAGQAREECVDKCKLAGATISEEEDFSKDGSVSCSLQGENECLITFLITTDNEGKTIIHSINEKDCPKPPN

This experiment deals with recombinant human integrin αVβ6 (Homo sapiens (Human), UniProt P06756+P18564). Kind of experiment: Solid phase integrin αVβ6 binding assay. The settings on record: inhibition of recombinant TGFβ1 LAP binding to coated integrin, IC50 presented in four ranges, read-out: αvβ6 Inhibition IC50 (nM) - range. In short, it runs like this:
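Plates coated with recombinant human αVβ6 (2 μg/mL) and blocked; compounds competed with TGFβ1 LAP (0.67 μg/mL) in Mn2+ (0.5 mM)/BSA/sucrose TBS for 2 h at 25° C. Bound LAP detected by biotin anti-LAP and peroxidase-streptavidin; IC50 by four-parameter logistic fit.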
By IC50 is commonly meant the concentration needed to halve the response being measured. Take `O=C(O)[C@H](CCN(CCCCc1ccc2c(n1)NCCC2)CC(F)F)Nc1nc(-c2cccnc2)nc2ccccc12` [Compound 99, (S)-4-((2,2-difluoroethyl) (4-(5,6,7,8-tetrahydro-1,8-naphthyridin-2-yl)butyl)amino)-2-((2-(pyridin-3-yl)quinazolin-4-yl)amino) butanoic Acid]: the IC50 fell in the range of 250 to 1000 nM.
`CO[C@H](C)CN(CCCCc1ccc2c(n1)NCCC2)CC[C@H](Nc1nc(C)nc2ccccc12)C(=O)O` [Compound 66, (S)-4-(((R)-2-methoxypropyl) (4-(5,6,7,8-tetrahydro-1,8-naphthyridin-2-yl)butyl)amino)-2-((2-methylquinazolin-4-yl)amino) butanoic Acid]: the IC50 is < 50 nM.
Regarding `COCCN(CCCCc1ccc2c(n1)NCCC2)CC[C@H](Nc1nc(C)nc2ccccc12)C(=O)O` [Compound 10, (S)-4-((2-methoxyethyl) (4-(5,6,7,8-tetrahydro-1,8-naphthyridin-2-yl)butyl)amino)-2-((2-methylquinazolin-4-yl)amino) butanoic Acid], the IC50 is < 50 nM.
The result for `COc1ccc2c(N[C@@H](CCN(CCCF)CCCCc3ccc4c(n3)NCCC4)C(=O)O)ncnc2c1` [Compound 41, (S)-4-((3-fluoropropyl) (4-(5,6,7,8-tetrahydro-1,8-naphthyridin-2-yl)butyl)amino)-2-((7-methoxyquinazolin-4-yl)amino) butanoic Acid] reads < 50 nM; that for `COC[C@@H](F)CN(CCCCc1ccc2c(n1)NCCC2)CC[C@H](Nc1ncnc2c1cnn2C)C(=O)O` [Compound 105, (S)-4-(((S)-2-fluoro-3-methoxypropyl) (4-(5,6,7,8-tetrahydro-1,8-naphthyridin-2-yl)butyl)amino)-2-((1-methyl-1H-pyrazolo[3,4-d]pyrimidin-4-yl)amino) butanoic Acid], < 50 nM; that for `O=C(O)[C@H](CCN(CCCF)CCCCc1ccc2c(n1)NCCC2)Nc1ncc(C(F)(F)F)cn1` [Compound 137, (S)-4-((3-fluoropropyl) (4-(5,6,7,8-tetrahydro-1,8-naphthyridin-2-yl)butyl)amino)-2-((5-(trifluoromethyl)pyrimidin-2-yl)amino) butanoic Acid], < 50 nM.
As for `COCCN(CCCCc1ccc2c(n1)NCCC2)CC[C@H](Nc1cc(C(F)F)ncn1)C(=O)O` [Compound 23, (S)-2-((6-(difluoromethyl)pyrimidin-4-yl)amino)-4-((2-methoxyethyl) (4-(5,6,7,8-tetrahydro-1,8-naphthyridin-2-yl)butyl)amino) butanoic Acid], the IC50 was < 50 nM.
As for `Cc1nc(N[C@@H](CCN(CCCCc2ccc3c(n2)NCCC3)CCOc2cccnc2C)C(=O)O)c2ccc(F)cc2n1` [Compound 53, (S)-2-((7-fluoro-2-methylquinazolin-4-yl)amino)-4-((2-((2-methylpyridin-3-yl)oxy)ethyl) (4-(5,6,7,8-tetrahydro-1,8-naphthyridin-2-yl)butyl)amino) butanoic Acid], the IC50 is < 50 nM.
In the case of `COCCN(CCCCc1ccc2c(n1)NCCC2)CC[C@H](Nc1ncnc2ccccc12)C(=O)O` [Compound 5, (S)-4-((2-methoxyethyl) (4-(5,6,7,8-tetrahydro-1,8-naphthyridin-2-yl)butyl)amino)-2-(quinazolin-4-ylamino) butanoic Acid], the IC50 was < 50 nM.
As to `O=C(O)[C@H](CCN(CCCCc1ccc2c(n1)NCCC2)CC(F)F)Nc1ncc(F)cn1` [Compound 121, (S)-4-((2,2-difluoroethyl) (4-(5,6,7,8-tetrahydro-1,8-naphthyridin-2-yl)butyl)amino)-2-((5-fluoropyrimidin-2-yl)amino) butanoic Acid], the IC50 was > 1000 nM.
As to `O=C(O)[C@H](CCN(CCCCc1ccc2c(n1)NCCC2)C1CC1)Nc1cc(C(F)F)ncn1` [Compound 1, (S)-4-(cyclopropyl(4-(5,6,7,8-tetrahydro-1,8-naphthyridin-2-yl)butyl)amino)-2-((6-(difluoromethyl)pyrimidin-4-yl)amino) butanoic Acid], the IC50 was 250 to 1000 nM.
As for `COC[C@@H](F)CN(CCCCc1ccc2c(n1)NCCC2)CC[C@H](Nc1ncc(Br)cn1)C(=O)O` [Compound 86, (S)-2-((5-bromopyrimidin-2-yl)amino)-4-(((S)-2-fluoro-3-methoxypropyl) (4-(5,6,7,8-tetrahydro-1,8-naphthyridin-2-yl)butyl)amino) butanoic Acid], the IC50 fell in the range of 50 to 250 nM.
With `CO[C@H](C)CN(CCCCc1ccc2c(n1)NCCC2)CC[C@H](Nc1ncc(C#N)cn1)C(=O)O` [Compound 68, (S)-2-((5-cyanopyrimidin-2-yl)amino)-4-(((R)-2-methoxypropyl) (4-(5,6,7,8-tetrahydro-1,8-naphthyridin-2-yl)butyl)amino) butanoic Acid], the IC50 was < 50 nM.
As to `COC[C@@H](F)CN(CCCCc1ccc2c(n1)NCCC2)CC[C@H](Nc1cc(-n2cccn2)ncn1)C(=O)O` [Compound 108, (S)-2-((6-(1H-pyrazol-1-yl)pyrimidin-4-yl)amino)-4-(((S)-2-fluoro-3-methoxypropyl) (4-(5,6,7,8-tetrahydro-1,8-naphthyridin-2-yl)butyl)amino) butanoic Acid], the IC50 was > 1000 nM.
Turning to `CO[C@H](C)CN(CCCCc1ccc2c(n1)NCCC2)CC[C@H](Nc1nccnc1C#N)C(=O)O` [Compound 76, (S)-2-((3-cyanopyrazin-2-yl)amino)-4-(((R)-2-methoxypropyl) (4-(5,6,7,8-tetrahydro-1,8-naphthyridin-2-yl)butyl)amino) butanoic Acid], the IC50 was < 50 nM.
For the compound `CO[C@H](C)CN(CCCCc1ccc2c(n1)NCCC2)CC[C@H](Nc1ccnc(-c2ccccc2)n1)C(=O)O` [Compound 73, (S)-4-(((R)-2-methoxypropyl) (4-(5,6,7,8-tetrahydro-1,8-naphthyridin-2-yl)butyl)amino)-2-((2-phenylpyrimidin-4-yl)amino) butanoic Acid], the IC50 is < 50 nM.
Consider `COCCN(CCCCc1ccc2c(n1)NCCC2)CC[C@H](Nc1cc(C(F)(F)F)nc(C)n1)C(=O)O` [Compound 22, (S)-4-((2-methoxyethyl) (4-(5,6,7,8-tetrahydro-1,8-naphthyridin-2-yl)butyl)amino)-2-((2-methyl-6-(trifluoromethyl)pyrimidin-4-yl)amino) butanoic Acid], for which the IC50 is < 50 nM.
Regarding `Cn1ncc2c(N[C@@H](CCN(CCCCc3ccc4c(n3)NCCC4)CC(F)F)C(=O)O)ncnc21` [Compound 88, (S)-4-((2,2-difluoroethyl) (4-(5,6,7,8-tetrahydro-1,8-naphthyridin-2-yl)butyl)amino)-2-((1-methyl-1H-pyrazolo[3,4-d]pyrimidin-4-yl)amino) butanoic Acid], the IC50 was > 1000 nM.
